Data from PMC11274128, “Modification and Synergistic Studies of a Novel Frog Antimicrobial Peptide against Pseudomonas aeruginosa Biofilms” (Antibiotics, 2024).
≈ marks a conversion by molar mass, not a printed value. Where two headings read alike, the source gives them in different places. Bridge positions count the residues as written; N and C are the ends. Peptide text beside a SMILES is read from it.

Experiments:
S. aureus (ATCC 6538) = assay: microbe, parasite or virus in culture; format: cell-based, Staphylococcus aureus
Excerpt: (§1) The minimum inhibitory concentration (MIC) is the minimum concentration of an antimicrobial agent that prevents the visible growth of a bacterium or bacteria. The MIC is an important piece of data for research on new antimicrobial agents and helps in the effective selection of antibiotics to improve the success of treatment. The minimum bactericidal concentration (MBC) is defined as the lowest antibiotic concentration that kills 99.9% of the inoculum. This study mainly contained eight different microorganisms, which were Staphylococcus aureus (ATCC 6538), methicillin-resistant Staphylococcus aureus (NCTC 12493), Enterococcus faecalis (NCTC 12697), Escherichia coli (ATCC 8739), Klebsiella pneumoniae (ATCC 43816), Pseudomonas aeruginosa (ATCC CRM 9027), Acinetobacter baumannii (BAA 747), and Candida albicans (ATCC 10231). The bacteria were incubated in the compatible medium at 37 °C overnight.

MRSA (NCTC 12493) = assay: microbe, parasite or virus in culture; format: cell-based, methicillin-resistant Staphylococcus aureus
Excerpt: as §1

E. faecalis (NCTC 12697) = assay: microbe, parasite or virus in culture; format: cell-based, Enterococcus faecalis; details: Enterococcus faecalis, NCTC12697
Excerpt: as §1

E. coli (ATCC 8739) = assay: microbe, parasite or virus in culture; format: cell-based, Escherichia coli
Excerpt: as §1

[1] = tested on: K. pneumoniae (ATCC 43816); assay: microbe, parasite or virus in culture; format: cell-based, Klebsiella pneumoniae
Excerpt: as §1

[2] = tested on: P. aeruginosa (ATCC CRM 9027); assay: microbe, parasite or virus in culture; format: cell-based, Pseudomonas aeruginosa
Excerpt: as §1

A. baumannii (BAA 747) = assay: microbe, parasite or virus in culture; format: cell-based, Acinetobacter baumannii
Excerpt: as §1

C. albicans (ATCC 10231) = format: cell-based, Candida albicans; details: yeast C. albicans ATCC 10231
Excerpt: as §1

G+ Bacteria = assay: Geometric mean of MICs and TI value; format: cell-based; details: geometric mean of MICs against tested Gram-positive bacteria
Method: (§2) The therapeutic potential of antimicrobial agents was valued based on their selectivity toward bacteria in reference to erythrocytes. The TI value was calculated from the results of antibacterial and haemolysis experiments of peptides using the following formula:TI value = HC10 / GMMICs.
(§3) GM was the geometric mean of MICs against all tested bacteria.

G− Bacteria = assay: Geometric mean of MICs and TI value; format: cell-based; details: geometric mean of MICs against tested Gram-negative bacteria
Method: as §2, §3

Yeast = assay: Geometric mean of MICs and TI value; format: cell-based, Candida albicans; details: C. albicans ATCC 10231
Method: as §2, §3

horse red blood cells = horse red blood cells in PBS, 37 °C, 2 h, absorbance 570 nm; positive control 0.1% Triton
Method: The pure peptide was dissolved in PBS and then two-fold diluted to obtain a series of concentrations: 512, 256, 128, 64, 32, 16, 8, 4, and 2 μM. A positive control (0.1% Triton) and blank control (PBS) were used. Two millilitres of fresh horse red blood cells were washed in PBS until the supernatant became colourless and clear, and the mixture was then thoroughly mixed. Each mixture contained 100 μL of peptide solution or controls and 100 μL of horse red blood cells, which were then incubated at 37 °C for 2 h and centrifuged at 930× g for 10 min. Subsequently, 100 μL of supernatant from each tube was transferred into a 96-well plate, and the plate reader measured the absorbance at a wavelength of 570 nm. The haemolysis rate was calculated using the following formula:Percentage Haemolysis= (ASample − ABlank)/(APositive − ABlank) × 100%

[3] = Staphylococcus aureus, ATCC6538
[4] = Klebsiella pneumoniae, ATCC43816
[5] = Acinetobacter baumannii, BAA747

**Q.** Which MIC (S. aureus (ATCC 6538); Staphylococcus aureus, ATCC6538, planktonic S. aureus ATCC 6538, 37 °C, nine repeats of three independent experiments, read-out: MIC) does the source give for `C[C@H]1COc2c(N3CCN(C)CC3)c(F)cc3c(=O)c(C(=O)O)cn1c23` [Levofloxacin, reference compound] here?
**A.** 0.5 µM (≈ 0.181 µg/mL)

**Q.** What about the MBC (S. aureus (ATCC 6538); Staphylococcus aureus, ATCC6538, planktonic S. aureus ATCC 6538, lowest concentration killing 99.9% of inoculum, read-out: MBC) of the same molecule?
**A.** 0.5 µM (≈ 0.181 µg/mL)

**Q.** And the MIC (MRSA (NCTC 12493); Staphylococcus aureus, planktonic MRSA NCTC 12493, 37 °C, nine repeats of three independent experiments, read-out: MIC)?
**A.** 0.25 µM (≈ 0.0903 µg/mL)

**Q.** What about the MBC (MRSA (NCTC 12493); Staphylococcus aureus, planktonic MRSA NCTC 12493, lowest concentration killing 99.9% of inoculum, read-out: MBC) of the same molecule?
**A.** 0.5 µM (≈ 0.181 µg/mL)

**Q.** And the MIC (E. faecalis (NCTC 12697); planktonic E. faecalis NCTC 12697, 37 °C, nine repeats of three independent experiments, read-out: MIC)?
**A.** 2 µM (≈ 0.723 µg/mL)

**Q.** And the MBC (E. faecalis (NCTC 12697); planktonic E. faecalis NCTC 12697, lowest concentration killing 99.9% of inoculum, read-out: MBC)?
**A.** 8 µM (≈ 2.89 µg/mL)

**Q.** What about the MIC (E. coli (ATCC 8739); Escherichia coli, ATCC8739, planktonic E. coli ATCC 8739, 37 °C, nine repeats of three independent experiments, read-out: MIC) of the same molecule?
**A.** 0.25 µM (≈ 0.0903 µg/mL)

**Q.** And the MBC (E. coli (ATCC 8739); Escherichia coli, ATCC8739, planktonic E. coli ATCC 8739, lowest concentration killing 99.9% of inoculum, read-out: MBC)?
**A.** 0.5 µM (≈ 0.181 µg/mL)

**Q.** What about the MIC ([1]; Klebsiella pneumoniae, ATCC43816, planktonic K. pneumoniae ATCC 43816, 37 °C, nine repeats of three independent experiments, read-out: MIC) of the same molecule?
**A.** > 128 µM

**Q.** What about the MBC ([1]; Klebsiella pneumoniae, ATCC43816, planktonic K. pneumoniae ATCC 43816, lowest concentration killing 99.9% of inoculum, read-out: MBC) of the same molecule?
**A.** > 128 µM

**Q.** And the MIC ([2]; Pseudomonas aeruginosa, planktonic P. aeruginosa ATCC CRM 9027, 37 °C, nine repeats of three independent experiments, read-out: MIC)?
**A.** 2 µM (≈ 0.723 µg/mL)

**Q.** What about the MBC ([2]; Pseudomonas aeruginosa, planktonic P. aeruginosa ATCC CRM 9027, lowest concentration killing 99.9% of inoculum, read-out: MBC) of the same molecule?
**A.** 2 µM (≈ 0.723 µg/mL)

**Q.** What about the MIC (A. baumannii (BAA 747); Acinetobacter baumannii, BAA747, planktonic A. baumannii BAA 747, 37 °C, nine repeats of three independent experiments, read-out: MIC) of the same molecule?
**A.** 1 µM (≈ 0.361 µg/mL)

**Q.** What about the MBC (A. baumannii (BAA 747); Acinetobacter baumannii, BAA747, planktonic A. baumannii BAA 747, lowest concentration killing 99.9% of inoculum, read-out: MBC) of the same molecule?
**A.** 1 µM (≈ 0.361 µg/mL)

**Q.** For `CC[C@H](C)[C@H](NC(=O)[C@H](CCCCN)NC(=O)[C@H](CCCCN)NC(=O)CNC(=O)[C@H](C)NC(=O)[C@H](C)NC(=O)[C@H](CC(C)C)NC(=O)[C@@H](NC(=O)[C@H](C)NC(=O)[C@H](CCCNC(=N)N)NC(=O)[C@H](CC(C)C)NC(=O)[C@H](CC(C)C)NC(=O)CN)C(C)C)C(=O)N[C@H](C(=O)N[C@H]1CSSC[C@@H](C(=O)O)NC(=O)[C@H](CCCNC(=N)N)NC(=O)CNC(=O)[C@H](CO)NC(=O)[C@H](CC(C)C)NC(=O)CNC1=O)C(C)C` [Peptide 2085-R] (H-GLLRAVLAAGKKIVCGLSGRC-OH; disulfide 15-21), which MIC (S. aureus (ATCC 6538); planktonic S. aureus ATCC 6538, 37 °C, nine repeats of three independent experiments) is on record?
**A.** 16 µM (≈ 33.3 µg/mL)

**Q.** And the MBC (S. aureus (ATCC 6538); planktonic S. aureus ATCC 6538, lowest concentration killing 99.9% of inoculum)?
**A.** 16 µM (≈ 33.3 µg/mL)

**Q.** What about the MIC (MRSA (NCTC 12493); planktonic MRSA NCTC 12493, 37 °C, nine repeats of three independent experiments, read-out: MIC) of the same molecule?
**A.** 16 µM (≈ 33.3 µg/mL)

**Q.** And the MBC (MRSA (NCTC 12493); planktonic MRSA NCTC 12493, lowest concentration killing 99.9% of inoculum, read-out: MBC)?
**A.** 32 µM (≈ 66.7 µg/mL)

**Q.** And the MIC (E. coli (ATCC 8739); planktonic E. coli ATCC 8739, 37 °C, nine repeats of three independent experiments)?
**A.** 16 µM (≈ 33.3 µg/mL)

**Q.** And the MBC (E. coli (ATCC 8739); planktonic E. coli ATCC 8739, lowest concentration killing 99.9% of inoculum)?
**A.** 16 µM (≈ 33.3 µg/mL)

**Q.** What about the MIC ([1]; planktonic K. pneumoniae ATCC 43816, 37 °C, nine repeats of three independent experiments, read-out: MIC) of the same molecule?
**A.** 32 µM (≈ 66.7 µg/mL)

**Q.** What about the MBC ([1]; planktonic K. pneumoniae ATCC 43816, lowest concentration killing 99.9% of inoculum, read-out: MBC) of the same molecule?
**A.** 64 µM (≈ 133 µg/mL)

**Q.** And the MIC ([2]; planktonic P. aeruginosa ATCC CRM 9027, 37 °C, nine repeats of three independent experiments)?
**A.** 64 µM (≈ 133 µg/mL)

**Q.** And the MBC ([2]; planktonic P. aeruginosa ATCC CRM 9027, lowest concentration killing 99.9% of inoculum)?
**A.** 64 µM (≈ 133 µg/mL)

**Q.** What about the MIC (A. baumannii (BAA 747); planktonic A. baumannii BAA 747, 37 °C, nine repeats of three independent experiments, read-out: MIC) of the same molecule?
**A.** 32 µM (≈ 66.7 µg/mL)

**Q.** What about the MBC (A. baumannii (BAA 747); planktonic A. baumannii BAA 747, lowest concentration killing 99.9% of inoculum, read-out: MBC) of the same molecule?
**A.** 64 µM (≈ 133 µg/mL)

**Q.** And the MIC (C. albicans (ATCC 10231); 37 °C, nine repeats of three independent experiments)?
**A.** 32 µM (≈ 66.7 µg/mL)

**Q.** What about the MBC (C. albicans (ATCC 10231); lowest concentration killing 99.9% of inoculum) of the same molecule?
**A.** 32 µM (≈ 66.7 µg/mL)

**Q.** And the “GM (geometric mean of MICs), G+ Bacteria” value (G+ Bacteria)?
**A.** 25.40 µM

**Q.** And the “GM (geometric mean of MICs), G− Bacteria” value (G− Bacteria)?
**A.** 32.00 µM

**Q.** And the “GM (geometric mean of MICs), Yeast” value (Yeast)?
**A.** 32.00 µM

**Q.** And the HC10 (horse red blood cells)?
**A.** >256 µM

**Q.** Which MBC (S. aureus (ATCC 6538); [3]) does the source give for `CN[C@H](CC(C)C)C(=O)N[C@H]1C(=O)N[C@@H](CC(N)=O)C(=O)N[C@H]2C(=O)N[C@H]3C(=O)N[C@H](C(=O)N[C@H](C(=O)O)c4cc(O)cc(O)c4-c4cc3ccc4O)[C@H](O)c3ccc(c(Cl)c3)Oc3cc2cc(c3O[C@@H]2O[C@H](CO)[C@@H](O)[C@H](O)[C@H]2O[C@H]2C[C@](C)(N)[C@H](O)[C@H](C)O2)Oc2ccc(cc2Cl)[C@H]1O` [Vancomycin, reference compound] here?
**A.** 64 µM (≈ 92.8 µg/mL)

**Q.** What about the MIC (S. aureus (ATCC 6538); [3]) of the same molecule?
**A.** 8 µM (≈ 11.6 µg/mL)

**Q.** What about the MBC (MRSA (NCTC 12493); Staphylococcus aureus) of the same molecule?
**A.** 8 µM (≈ 11.6 µg/mL)

**Q.** What about the MIC (MRSA (NCTC 12493); Staphylococcus aureus) of the same molecule?
**A.** 4 µM (≈ 5.8 µg/mL)

**Q.** And the MBC (E. faecalis (NCTC 12697))?
**A.** > 128 µM

**Q.** And the MIC (E. faecalis (NCTC 12697))?
**A.** 32 µM (≈ 46.4 µg/mL)

**Q.** And the MBC (E. coli (ATCC 8739); Escherichia coli, ATCC8739)?
**A.** > 128 µM

**Q.** What about the MIC (E. coli (ATCC 8739); Escherichia coli, ATCC8739) of the same molecule?
**A.** 32 µM (≈ 46.4 µg/mL)

**Q.** And the MBC [1, 4]?
**A.** > 128 µM

**Q.** And the MIC [1, 4]?
**A.** > 128 µM

**Q.** What about the MBC ([2]; Pseudomonas aeruginosa) of the same molecule?
**A.** > 128 µM

**Q.** And the MIC ([2]; Pseudomonas aeruginosa)?
**A.** > 128 µM

**Q.** What about the MBC (A. baumannii (BAA 747); [5]) of the same molecule?
**A.** > 128 µM

**Q.** What about the MIC (A. baumannii (BAA 747); [5]) of the same molecule?
**A.** > 128 µM
